The source made the active and inactive calls. No cut-off for these calls is given here.
Key:
[1] = biological target: Histone acetyltransferase GCN5 (Saccharomyces cerevisiae S288c) (UniProt Q03330); assay: Inhibition of Saccharomyces cerevisiae recombinant GCN5 assessed as histone H3 acetylation
Toxoplasma gondii [2] = assay: Inhibition of Toxoplasma gondii in human foreskin fibroblasts relative to DMSO; format: functional, organism-based
Toxoplasma gondii [3] = assay: Inhibition of Toxoplasma gondii in human foreskin fibroblasts at 100 uM relative to DMSO; format: functional
Toxoplasma gondii [4] = assay: Decrease in acetylated histone H3 levels in Toxoplasma gondii tachyzoites after 3 days by immunoblotting; format: functional, organism-based
Toxoplasma gondii [5] = assay: Effect on apicoplasts in Toxoplasma gondii at 200 uM by DAPI staining relative to DMSO; format: functional

Sequence of Histone acetyltransferase GCN5 (Saccharomyces cerevisiae S288c) (Q03330 whole entry): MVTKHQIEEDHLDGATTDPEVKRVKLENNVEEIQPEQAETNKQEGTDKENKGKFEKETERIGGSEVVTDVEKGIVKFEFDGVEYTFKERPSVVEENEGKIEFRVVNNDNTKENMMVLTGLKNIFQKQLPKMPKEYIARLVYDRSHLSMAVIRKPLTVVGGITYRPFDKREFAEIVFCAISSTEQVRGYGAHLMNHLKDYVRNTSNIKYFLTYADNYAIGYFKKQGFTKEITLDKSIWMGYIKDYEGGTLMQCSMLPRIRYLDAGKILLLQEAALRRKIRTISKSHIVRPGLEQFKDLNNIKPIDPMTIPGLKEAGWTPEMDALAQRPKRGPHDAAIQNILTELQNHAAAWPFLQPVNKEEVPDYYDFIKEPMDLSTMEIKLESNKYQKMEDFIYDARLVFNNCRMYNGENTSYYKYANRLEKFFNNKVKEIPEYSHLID

Row | Activity [1] | Structure (SMILES) | Activity (Toxoplasma gondii [2]) | inhibition at 100 µM (Toxoplasma gondii [3]) | Activity (Toxoplasma gondii [4]) | Activity (Toxoplasma gondii [5])
1 | Active | C=CC/C=C\C/C=C\CCCCCCCc1cccc(O)c1C(=O)O | – | – | – | –
2 | inactive | CCOC(=O)c1cc2ccccc2nc1C | Dose-dependent effect | 50% | inactive | 52%

— ChEMBL document CHEMBL1142079, “Quinoline derivative MC1626, a putative GCN5 histone acetyltransferase (HAT) inhibitor, exhibits HAT-independent activity against Toxoplasma gondii” (2007)
